Data reported in ChEMBL document CHEMBL1153832, “Identification and characterization of UK-201844, a novel inhibitor that interferes with human immunodeficiency virus type 1 gp160 processing” (Antimicrob Agents Chemother, 2007).
Activity calls are given as the source filed them. The calls are words filed in the database; no cut-off is given here.

What was measured:
[1] = test system: Human immunodeficiency virus 1; experiment: Antiviral activity against recombinant HIV1 NL4-3 bearing envelope with S162N, N302Y, G354E, V372E, D474N substitutions infected in human MT2 cells by virus production assay; assay type: functional, organism-based
[2] = test system: Human immunodeficiency virus 1; experiment: Antiviral activity against recombinant HIV1 NL4/3BFL chimeric virus infected in human MT2 cells assessed as inhibition of virus-induced CPE; assay type: functional, organism-based; conditions: Human immunodeficiency virus 1, NL4/3BFL
[3] = test system: Human immunodeficiency virus 1; experiment: Ratio of EC50 for recombinant HIV1 NL4-3 bearing envelope with V372E substitution to EC50 for parental HIV1 NL4-3; assay type: functional
[4] = test system: Human immunodeficiency virus 1; experiment: Antiviral activity against HIV1 NL4-3 infected in human C8166 cells; assay type: functional, organism-based
[5] = test system: Human immunodeficiency virus 1; experiment: Antiviral activity against recombinant HIV1 NL4-3 bearing envelope with D474N substitution infected in human MT2 cells by virus production assay; assay type: functional, organism-based
[6] = test system: Human immunodeficiency virus 1; experiment: Antiviral activity against HIV1 bearing VSV envelope infected in human MT2 cells assessed as inhibition of VSV-envelope packed virions at 15 uM after 72 hrs by virus production assay relative to control; assay type: functional; conditions: Human immunodeficiency virus 1, MT2, 72 h
[7] = target: T1, Proprotein convertase subtilisin/kexin type 6 (Rattus norvegicus) (UniProt Q63415); experiment: Inhibition of rat PACE4 up to 100 uM
T1 sequence (whole entry): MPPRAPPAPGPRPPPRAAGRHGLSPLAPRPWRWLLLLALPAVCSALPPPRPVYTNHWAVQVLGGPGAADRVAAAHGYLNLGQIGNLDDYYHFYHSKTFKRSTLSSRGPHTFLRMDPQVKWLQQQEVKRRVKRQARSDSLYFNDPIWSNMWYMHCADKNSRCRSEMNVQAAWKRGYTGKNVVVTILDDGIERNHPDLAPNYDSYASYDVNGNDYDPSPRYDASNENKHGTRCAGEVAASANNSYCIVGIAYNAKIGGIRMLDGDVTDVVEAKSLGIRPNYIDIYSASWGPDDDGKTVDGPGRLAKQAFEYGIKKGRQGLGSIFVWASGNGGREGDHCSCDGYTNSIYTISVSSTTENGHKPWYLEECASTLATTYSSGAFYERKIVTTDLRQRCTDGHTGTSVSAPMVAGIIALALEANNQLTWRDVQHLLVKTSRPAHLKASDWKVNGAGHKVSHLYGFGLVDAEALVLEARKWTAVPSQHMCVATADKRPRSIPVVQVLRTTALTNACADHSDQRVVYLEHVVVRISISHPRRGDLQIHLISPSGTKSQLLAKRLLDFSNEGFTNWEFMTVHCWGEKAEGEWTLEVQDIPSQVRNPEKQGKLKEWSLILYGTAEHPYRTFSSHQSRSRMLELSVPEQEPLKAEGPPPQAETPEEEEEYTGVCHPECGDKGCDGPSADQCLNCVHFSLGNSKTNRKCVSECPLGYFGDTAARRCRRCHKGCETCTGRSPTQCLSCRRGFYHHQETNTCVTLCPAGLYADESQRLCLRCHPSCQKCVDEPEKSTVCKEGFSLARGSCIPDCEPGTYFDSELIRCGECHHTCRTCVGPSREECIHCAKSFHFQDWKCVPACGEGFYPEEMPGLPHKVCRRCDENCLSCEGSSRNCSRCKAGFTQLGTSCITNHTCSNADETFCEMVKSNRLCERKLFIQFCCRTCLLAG

[8] = test system: Human immunodeficiency virus 1; experiment: Antiviral activity against recombinant HIV1 NL4-3 bearing envelope with V372E, D474N substitutions infected in human MT2 cells by virus production assay; assay type: functional, organism-based
[9] = test system: Human immunodeficiency virus 1; experiment: Antiviral activity against HIV1 3B infected in human MT2 cells assessed as inhibition of virus-induced cytopathic effect after 6 days by XTT assay; assay type: functional, organism-based; conditions: Human immunodeficiency virus 1, 3B, MT2, 144 h
[10] = test system: Human immunodeficiency virus 1; experiment: Antiviral activity against HIV1 NL4-3 infected in human MT2 cells assessed as inhibition of viral p24 antigen level at 7.5 uM by Western blot; assay type: functional; conditions: Human immunodeficiency virus 1, NL4-3, MT2
[11] = test system: Human immunodeficiency virus 1; experiment: Antiviral activity against HIV1 clade-B clinical isolate up to its cytotoxic concentration; assay type: functional, organism-based
[12] = test system: Human immunodeficiency virus 1; experiment: Ratio of EC50 for recombinant HIV1 NL4-3 bearing envelope with G354E, V372E, D474N substitutions to EC50 for parental HIV1 NL4-3; assay type: functional
[13] = test system: Human immunodeficiency virus 1; experiment: Antiviral activity against HIV1 NL4-3 infected in human MT2 cells assessed as inhibition of virus-induced cytopathic effect after 6 days by XTT assay; assay type: functional, organism-based; conditions: Human immunodeficiency virus 1, NL4-3, MT2, 144 h
[14] = test system: Human immunodeficiency virus 1; experiment: Antiviral activity against HIV1 bearing HIV1 NL4-3 envelope infected in human MT2 cells assessed as inhibition of HIV-envelope packed virions at 15 uM after 72 hrs by virus production assay relative to control; assay type: functional; conditions: Human immunodeficiency virus 1, MT2, 72 h
[15] = test system: Human immunodeficiency virus 1; experiment: Antiviral activity against recombinant HIV1 NL4/3BNt chimeric virus infected in human MT2 cells assessed as inhibition of virus-induced CPE; assay type: functional, organism-based; conditions: Human immunodeficiency virus 1, NL4/3BNt
[16] = test system: Human immunodeficiency virus 1; experiment: Antiviral activity against HIV1 NL4-3 infected in human CEM-SS cells; assay type: functional, organism-based
[17] = test system: Human immunodeficiency virus 1; experiment: Antiviral activity against HIV1 NL4-3 transfected in HEK293 cells assessed as inhibition of viral envelope gp160 processing at 15 uM by Western blot; assay type: functional; conditions: Human immunodeficiency virus 1, NL4-3, HEK293
[18] = test system: Human immunodeficiency virus 1; experiment: Antiviral activity against parental HIV1 NL4-3 infected in human MT2 cells by virus production assay; assay type: functional, organism-based; conditions: Human immunodeficiency virus 1, NL4-3, MT2
[19] = test system: Human immunodeficiency virus 1; experiment: Ratio of EC50 for recombinant HIV1 NL4-3 bearing envelope with S162N, N302Y substitutions to EC50 for parental HIV1 NL4-3; assay type: functional
[20] = test system: Human immunodeficiency virus 1; experiment: Ratio of EC50 for recombinant HIV1 NL4-3 bearing envelope with V372E, D474N substitutions to EC50 for parental HIV1 NL4-3; assay type: functional
[21] = test system: Human immunodeficiency virus 1; experiment: Antiviral activity against HIV1 NL4-3 infected in human CEM-T4 cells; assay type: functional, organism-based
[22] = test system: Human immunodeficiency virus 1; experiment: Inhibition of HIV1 NL4-3 proteins incorporation into virions transfected in HEK293 cells assessed as aberrant Env protein at 15 uM by Western blot; assay type: functional, organism-based
[23] = test system: Human immunodeficiency virus 1; experiment: Ratio of EC50 for recombinant HIV1 NL4-3/3BFL chimeric virus to EC50 for parental HIV1 NL4-3 virus; assay type: functional
[24] = Therapeutic index, ratio of CC50 for human MT2 cells to EC50 for HIV1 Ba-L; assay type: cell-based; conditions: read-out: TI
[25] = test system: Human immunodeficiency virus 1; experiment: Antiviral activity against HIV1 bearing HIV1 NL4-3 envelope infected in human HeLa CD4 cells coexpressing LTR/beta-Gal gene assessed as reduction in virus-induced beta-galactosidase reporter gene activity after 72 hrs by single-cycle infection assay; assay type: functional, organism-based; conditions: Human immunodeficiency virus 1, HeLa
[26] = test system: Human immunodeficiency virus 1; experiment: Ratio of EC50 for recombinant HIV1 NL4-3 bearing envelope with G354E, D474N substitutions to EC50 for parental HIV1 NL4-3; assay type: functional
[27] = test system: Human immunodeficiency virus 1; experiment: Antiviral activity against HIV1 Ba-L infected in human PM1 cells assessed as inhibition of viral p24 antigen production after 5 days; assay type: functional, organism-based; conditions: Human immunodeficiency virus 1, Ba-L, PM1, 120 h
[28] = test system: Human immunodeficiency virus 1; experiment: Antiviral activity against HIV1 NL4-3 infected in human 174XCEM T-cells; assay type: functional, organism-based
[29] = test system: Human immunodeficiency virus 1; experiment: Antiviral activity against recombinant HIV1 NL4-3 bearing envelope with G354E, D474N substitutions infected in human MT2 cells by virus production assay; assay type: functional, organism-based
[30] = Cytotoxicity against human MT2 cells after 6 days by XTT assay; assay type: cell-based

With NC(=O)C(c1ccccc1)(c1ccccc1)[C@H]1CCCN(CCc2ccc3c(c2)CCO3)C1 the EC50 [1] was over 32 µM, the EC50 [2] was over 32 µM and the “fold change (FC)” value [3] was 0.9. The EC50 [4] was “Active”, the EC50 [5] was 6.1 µM and the inhibition in vivo at 15 µM [6] was -6%. The Activity [7] was “inactive”, the EC50 [8] was over 32 µM and the EC50 [9] was 32 µM. The inhibition at 7.5 µM [10] was 99%, the Activity [11] was “inactive” and the “fold change (FC)” value [12] was over 31. It also gave an EC50 [13] of 1.3 µM, an inhibition in vivo at 15 µM [14] of 99.5% and an EC50 [15] of 1.2 µM. For the same compound, the EC50 [16] was “Active”, the inhibition at 15 µM [17] was 100% and the EC50 [18] was 1.03 µM. The “fold change (FC)” value [19] was 8.3, the “fold change (FC)” value [20] was over 31 and the EC50 [21] was “Active”. The Activity [22] was “Active”, the “fold change (FC)” value [23] was over 25 and the selectivity ratio [24] was 2. The EC50 [25] was over 32 µM, the “fold change (FC)” value [26] was over 31 and the EC50 [27] was 24 µM. The EC50 [28] was “Active”, the EC50 [29] was over 32 µM and the CC50 at 144 h [30] was 53 µM.
